Experimental data: ChEMBL document CHEMBL4433232, “Tool inhibitors and assays to interrogate the biology of the TRAF2 and NCK interacting kinase” (Bioorg Med Chem Lett, 2019)
Activity calls are given as the source filed them. No cut-off for these calls is given here.

Experiments:
Misshapen-like kinase 1 [1] = molecular target: T1, Misshapen-like kinase 1 (Homo sapiens, UniProt Q8N4C8); test: Inhibition of human full length MINK1(1-1332)-G5-Avi-6His-Flag expressed in baculovirus-infected sf21 cells using His6-SMAD1 as substrate preincubated for 30 mins followed by substrate addition and measured after 120 mins by ADP-Glo Reagent based method
[2] = molecular target: T2, TRAF2 and NCK-interacting protein kinase (Homo sapiens, UniProt Q9UKE5); test: Inhibition of human TNIK in human iPSC derived neuronal progenitor cells assessed as reduction in motif phosphorylation at 10 uM after 6 hrs with presence of okadaic acid by Western blot analysis
Target sequence in this assay (Q9UKE5 whole entry, looked up): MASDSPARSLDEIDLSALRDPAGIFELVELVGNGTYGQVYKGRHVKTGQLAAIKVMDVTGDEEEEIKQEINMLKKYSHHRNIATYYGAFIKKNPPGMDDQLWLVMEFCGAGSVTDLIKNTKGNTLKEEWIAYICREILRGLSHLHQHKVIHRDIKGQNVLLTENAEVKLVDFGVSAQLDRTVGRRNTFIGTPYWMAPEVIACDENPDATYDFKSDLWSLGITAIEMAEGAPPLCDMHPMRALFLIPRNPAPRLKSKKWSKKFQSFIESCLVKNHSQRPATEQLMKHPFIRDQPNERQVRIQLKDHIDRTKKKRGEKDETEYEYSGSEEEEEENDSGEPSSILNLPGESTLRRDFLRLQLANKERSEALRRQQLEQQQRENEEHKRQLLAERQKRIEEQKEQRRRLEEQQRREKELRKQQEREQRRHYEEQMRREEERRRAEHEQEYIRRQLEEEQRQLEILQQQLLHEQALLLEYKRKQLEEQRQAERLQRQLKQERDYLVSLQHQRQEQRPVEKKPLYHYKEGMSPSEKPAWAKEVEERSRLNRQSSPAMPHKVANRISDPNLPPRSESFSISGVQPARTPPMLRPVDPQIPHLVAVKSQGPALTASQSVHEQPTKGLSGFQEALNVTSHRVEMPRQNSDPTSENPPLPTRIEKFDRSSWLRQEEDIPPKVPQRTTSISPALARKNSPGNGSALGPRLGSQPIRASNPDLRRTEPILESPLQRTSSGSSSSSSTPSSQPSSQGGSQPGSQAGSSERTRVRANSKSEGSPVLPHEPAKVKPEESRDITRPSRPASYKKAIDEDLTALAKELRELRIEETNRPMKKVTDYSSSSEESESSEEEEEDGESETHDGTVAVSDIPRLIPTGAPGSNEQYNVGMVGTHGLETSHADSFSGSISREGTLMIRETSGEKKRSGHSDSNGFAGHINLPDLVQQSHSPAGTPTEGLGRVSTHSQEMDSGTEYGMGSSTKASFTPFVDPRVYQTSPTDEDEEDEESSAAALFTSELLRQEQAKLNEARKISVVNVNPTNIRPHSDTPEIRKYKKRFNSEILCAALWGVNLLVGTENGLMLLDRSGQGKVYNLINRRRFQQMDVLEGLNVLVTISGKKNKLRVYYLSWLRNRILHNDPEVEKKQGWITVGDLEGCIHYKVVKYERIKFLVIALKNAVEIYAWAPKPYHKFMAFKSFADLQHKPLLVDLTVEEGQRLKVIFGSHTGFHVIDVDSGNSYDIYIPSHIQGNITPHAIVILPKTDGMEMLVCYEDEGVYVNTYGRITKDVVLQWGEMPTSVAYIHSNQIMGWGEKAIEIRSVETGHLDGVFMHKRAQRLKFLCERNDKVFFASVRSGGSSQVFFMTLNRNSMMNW

[3] = molecular target: AP2-associated protein kinase 1 (Homo sapiens) (UniProt Q2M2I8); test: Inhibition of AAK1 (unknown origin) at 0.1 uM relative to control
[4] = molecular target: Dual specificity protein kinase CLK4 (Homo sapiens) (UniProt Q9HAZ1); test: Inhibition of CLK4 (unknown origin) at 0.1 uM relative to control
[5] = molecular target: T3, Mitogen-activated protein kinase kinase kinase kinase 4 (Homo sapiens, UniProt O95819); test: Inhibition of human 6His-TEV-SHM-MAP4K4(2 to 328)-GNS expressed in baculovirus-infected sf21 cells using LRRKtide as substrate preincubated for 30 mins followed by substrate addition and measured after 75 to 90 mins by ADP-Glo Reagent based method
Target sequence in this assay (O95819 whole entry): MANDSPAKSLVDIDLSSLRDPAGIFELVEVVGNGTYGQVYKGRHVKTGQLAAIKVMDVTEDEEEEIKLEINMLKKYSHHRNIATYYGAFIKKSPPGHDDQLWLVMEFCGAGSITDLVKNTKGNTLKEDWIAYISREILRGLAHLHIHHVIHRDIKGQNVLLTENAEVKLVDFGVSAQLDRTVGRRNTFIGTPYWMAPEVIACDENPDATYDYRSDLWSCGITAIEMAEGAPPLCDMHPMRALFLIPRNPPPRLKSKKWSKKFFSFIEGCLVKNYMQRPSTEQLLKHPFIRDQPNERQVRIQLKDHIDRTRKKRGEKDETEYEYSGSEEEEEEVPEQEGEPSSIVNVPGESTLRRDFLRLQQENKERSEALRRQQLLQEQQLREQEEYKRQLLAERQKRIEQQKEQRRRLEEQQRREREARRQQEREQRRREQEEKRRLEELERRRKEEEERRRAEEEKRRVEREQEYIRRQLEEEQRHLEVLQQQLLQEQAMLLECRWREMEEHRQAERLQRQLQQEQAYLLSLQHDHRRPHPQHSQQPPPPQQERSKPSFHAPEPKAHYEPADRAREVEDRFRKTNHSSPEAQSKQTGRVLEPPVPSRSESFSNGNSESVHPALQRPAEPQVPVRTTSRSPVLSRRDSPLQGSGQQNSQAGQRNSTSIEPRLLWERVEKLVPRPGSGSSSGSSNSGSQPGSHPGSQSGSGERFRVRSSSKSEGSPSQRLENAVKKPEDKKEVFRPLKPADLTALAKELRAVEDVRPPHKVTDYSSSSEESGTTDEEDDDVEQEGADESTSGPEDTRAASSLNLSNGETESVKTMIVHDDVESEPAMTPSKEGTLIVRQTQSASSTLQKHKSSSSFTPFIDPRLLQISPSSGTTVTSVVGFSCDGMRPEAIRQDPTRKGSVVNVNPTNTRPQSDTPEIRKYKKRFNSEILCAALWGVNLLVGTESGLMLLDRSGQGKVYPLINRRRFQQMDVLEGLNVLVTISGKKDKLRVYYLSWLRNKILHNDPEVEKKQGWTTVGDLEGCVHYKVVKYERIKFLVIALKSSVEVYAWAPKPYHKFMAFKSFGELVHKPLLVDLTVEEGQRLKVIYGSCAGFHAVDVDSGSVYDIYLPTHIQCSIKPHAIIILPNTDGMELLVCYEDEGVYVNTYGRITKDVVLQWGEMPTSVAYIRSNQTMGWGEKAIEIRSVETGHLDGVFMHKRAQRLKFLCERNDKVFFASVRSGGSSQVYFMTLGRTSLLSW

[6] = molecular target: T4, Interleukin-1 receptor-associated kinase 3 (Homo sapiens) (UniProt Q9Y616); test: Inhibition of IRAK3 (unknown origin) at 0.1 uM relative to control
T4 sequence (whole entry): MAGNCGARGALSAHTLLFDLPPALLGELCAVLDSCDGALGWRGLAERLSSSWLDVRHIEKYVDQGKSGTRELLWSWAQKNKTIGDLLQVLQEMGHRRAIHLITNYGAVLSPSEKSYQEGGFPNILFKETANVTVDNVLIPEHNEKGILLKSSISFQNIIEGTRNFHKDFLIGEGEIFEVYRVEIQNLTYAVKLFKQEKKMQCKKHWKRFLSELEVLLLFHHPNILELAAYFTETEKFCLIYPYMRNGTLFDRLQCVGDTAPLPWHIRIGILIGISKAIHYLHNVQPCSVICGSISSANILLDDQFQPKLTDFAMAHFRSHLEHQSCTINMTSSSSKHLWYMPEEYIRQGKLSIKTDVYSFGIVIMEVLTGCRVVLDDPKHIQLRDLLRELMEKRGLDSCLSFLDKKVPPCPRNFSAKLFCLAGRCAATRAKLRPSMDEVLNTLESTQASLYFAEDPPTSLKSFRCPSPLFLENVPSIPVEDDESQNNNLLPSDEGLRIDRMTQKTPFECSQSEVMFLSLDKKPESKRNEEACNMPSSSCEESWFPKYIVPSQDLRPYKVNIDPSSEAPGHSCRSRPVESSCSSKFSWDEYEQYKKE

Misshapen-like kinase 1 [7] = molecular target: T1, Misshapen-like kinase 1; test: Inhibition of human 6His-TEV-Avi-MINK1(1 to 328)-GNS expressed in baculovirus-infected sf21 cells using LRRKtide as substrate preincubated for 30 mins followed by substrate addition and measured after 75 to 90 mins by ADP-Glo Reagent based method
[8] = molecular target: Leucine-rich repeat serine/threonine-protein kinase 2 (Homo sapiens) (UniProt Q5S007); test: Inhibition of full length LRRK2 (unknown origin) at 0.1 uM relative to control
[9] = molecular target: T2, TRAF2 and NCK-interacting protein kinase; test: Inhibition of human full length TNIK in HEK293 cells co-transfected with full length SMAD1 incubated for 2 hrs by ELISA; format: cell-based
Target sequence in this assay (Q9UKE5 whole entry): as the sequence (Q9UKE5 whole entry, looked up) above

[10] = molecular target: T2, TRAF2 and NCK-interacting protein kinase; test: Inhibition of human 6His-TEV-TNIK(1 to 325) expressed in baculovirus-infected sf21 cells using LRRKtide as substrate preincubated for 30 mins followed by substrate addition and measured after 75 to 90 mins by ADP-Glo Reagent based method
Target sequence in this assay (Q9UKE5 whole entry): as the sequence (Q9UKE5 whole entry, looked up) above

Saccharomyces cerevisiae = test: Inhibition of Saccharomyces cerevisiae CDC7/DBF4 at 0.1 uM relative to control
[11] = molecular target: T3, Mitogen-activated protein kinase kinase kinase kinase 4; test: Inhibition of MAP4K4 (unknown origin) at 0.1 uM relative to control
[12] = molecular target: T5, Myosin light chain kinase family member 4 (Homo sapiens) (UniProt Q86YV6); test: Inhibition of MYLK4 (unknown origin) at 0.1 uM relative to control
T5 sequence (whole entry): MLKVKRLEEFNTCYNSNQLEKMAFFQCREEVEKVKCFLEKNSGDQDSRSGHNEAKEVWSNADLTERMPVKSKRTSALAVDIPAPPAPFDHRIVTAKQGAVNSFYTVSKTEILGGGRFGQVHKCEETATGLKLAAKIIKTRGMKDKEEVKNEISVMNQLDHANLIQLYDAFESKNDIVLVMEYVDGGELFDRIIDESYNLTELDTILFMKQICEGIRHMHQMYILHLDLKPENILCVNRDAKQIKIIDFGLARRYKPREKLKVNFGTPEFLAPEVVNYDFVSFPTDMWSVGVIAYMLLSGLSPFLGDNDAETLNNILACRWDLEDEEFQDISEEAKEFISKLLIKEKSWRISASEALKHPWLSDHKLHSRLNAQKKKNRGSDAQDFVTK

[13] = molecular target: T3, Mitogen-activated protein kinase kinase kinase kinase 4; test: Inhibition of human full length MAP4K4(1-1239)-G5-Avi-6His-Flag expressed in baculovirus-infected sf21 cells using His6-SMAD1 as substrate preincubated for 30 mins followed by substrate addition and measured after 120 mins by ADP-Glo Reagent based method
Target sequence in this assay (O95819 whole entry): as the sequence (O95819 whole entry) above

[14] = molecular target: Leucine-rich repeat serine/threonine-protein kinase 2 (Homo sapiens) (UniProt Q5S007); test: Inhibition of LRRK2 (unknown origin) at 0.1 uM relative to control
[15] = molecular target: T2, TRAF2 and NCK-interacting protein kinase; test: Inhibition of human full length TNIK(1-1360)-G5-Avi-6His-Flag expressed in baculovirus-infected sf21 cells using His6-SMAD1 as substrate preincubated for 30 mins followed by substrate addition and measured after 120 mins by ADP-Glo Reagent based method
Target sequence in this assay (Q9UKE5 whole entry): as the sequence (Q9UKE5 whole entry, looked up) above

[16] = molecular target: T2, TRAF2 and NCK-interacting protein kinase; test: Inhibition of human full length TNIK in HEK293 cells co-transfected with full length SMAD1 up to 30 uM incubated for 2 hrs by ELISA; format: cell-based
Target sequence in this assay (Q9UKE5 whole entry, looked up): as above

T1 sequence (Q8N4C8 whole entry): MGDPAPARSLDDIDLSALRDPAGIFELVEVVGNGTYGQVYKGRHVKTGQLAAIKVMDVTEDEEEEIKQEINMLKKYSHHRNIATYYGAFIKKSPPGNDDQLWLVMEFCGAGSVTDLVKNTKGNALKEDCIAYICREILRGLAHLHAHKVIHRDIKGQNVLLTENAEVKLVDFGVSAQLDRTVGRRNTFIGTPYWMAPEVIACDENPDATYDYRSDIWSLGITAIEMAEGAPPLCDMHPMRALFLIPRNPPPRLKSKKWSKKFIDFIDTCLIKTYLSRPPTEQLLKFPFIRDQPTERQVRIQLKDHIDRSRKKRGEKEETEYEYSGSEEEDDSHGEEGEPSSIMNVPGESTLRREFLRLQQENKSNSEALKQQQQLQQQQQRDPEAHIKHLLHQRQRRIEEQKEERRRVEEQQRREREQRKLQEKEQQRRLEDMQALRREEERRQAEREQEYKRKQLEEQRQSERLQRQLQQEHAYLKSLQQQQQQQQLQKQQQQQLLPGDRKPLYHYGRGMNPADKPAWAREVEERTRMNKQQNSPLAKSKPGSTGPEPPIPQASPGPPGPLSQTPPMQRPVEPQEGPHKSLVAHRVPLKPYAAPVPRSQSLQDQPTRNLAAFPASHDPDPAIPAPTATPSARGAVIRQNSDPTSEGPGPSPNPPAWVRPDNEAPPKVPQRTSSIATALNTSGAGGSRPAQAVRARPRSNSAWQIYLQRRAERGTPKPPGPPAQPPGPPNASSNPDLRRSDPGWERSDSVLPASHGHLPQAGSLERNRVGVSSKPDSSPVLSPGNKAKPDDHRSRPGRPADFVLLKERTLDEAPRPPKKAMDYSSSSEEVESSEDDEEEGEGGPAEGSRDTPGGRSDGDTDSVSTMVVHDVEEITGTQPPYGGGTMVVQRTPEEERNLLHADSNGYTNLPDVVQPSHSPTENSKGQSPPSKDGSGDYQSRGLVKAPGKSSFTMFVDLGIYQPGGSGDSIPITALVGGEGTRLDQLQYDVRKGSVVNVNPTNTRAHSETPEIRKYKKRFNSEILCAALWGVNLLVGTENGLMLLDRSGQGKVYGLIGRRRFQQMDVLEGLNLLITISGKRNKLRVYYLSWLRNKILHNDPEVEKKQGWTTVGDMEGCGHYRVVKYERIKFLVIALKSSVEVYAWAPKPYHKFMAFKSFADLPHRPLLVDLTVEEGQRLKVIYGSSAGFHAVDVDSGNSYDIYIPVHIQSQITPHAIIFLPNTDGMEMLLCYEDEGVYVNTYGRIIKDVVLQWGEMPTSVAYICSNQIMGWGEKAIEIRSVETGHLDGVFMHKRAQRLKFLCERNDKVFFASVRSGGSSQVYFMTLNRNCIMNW
Dual specificity protein kinase CLK4 (Homo sapiens), sequence (Q9HAZ1 whole entry, looked up): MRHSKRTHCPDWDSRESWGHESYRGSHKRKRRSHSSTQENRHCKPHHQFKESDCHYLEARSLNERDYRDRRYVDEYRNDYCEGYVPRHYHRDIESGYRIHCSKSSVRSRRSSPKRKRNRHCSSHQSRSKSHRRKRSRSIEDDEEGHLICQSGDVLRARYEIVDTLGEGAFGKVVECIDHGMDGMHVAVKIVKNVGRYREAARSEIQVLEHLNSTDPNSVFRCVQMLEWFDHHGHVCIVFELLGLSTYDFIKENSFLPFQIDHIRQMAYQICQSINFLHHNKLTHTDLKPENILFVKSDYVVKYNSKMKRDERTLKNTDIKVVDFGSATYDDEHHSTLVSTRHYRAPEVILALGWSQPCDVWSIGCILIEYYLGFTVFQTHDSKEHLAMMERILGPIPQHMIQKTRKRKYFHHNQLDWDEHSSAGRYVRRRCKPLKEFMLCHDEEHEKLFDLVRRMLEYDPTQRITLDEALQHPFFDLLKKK

SMILES	IC50 (Misshapen-like kinase 1 [1])	inhibition [2]	IC50 ([5]; read-out: pIC50 (converted))	IC50 (Misshapen-like kinase 1 [7]; read-out: pIC50 (converted))	IC50 ([9]; read-out: IC50)	IC50 ([10]; read-out: pIC50 (converted))	IC50 [13]	IC50 [15]	IC50 ([9]; read-out: pIC50 (converted))	inhibition [16]	further results
Nc1ncc(Br)c2ccc(-c3ccnc(F)c3)nc12	0.0126 µM	Active	0.0316 µM	0.0501 µM	1.13 µM	0.0126 µM	0.02 µM	0.00794 µM			inhibition [3]: 95%; inhibition [4]: 51%; inhibition [6]: 90%; inhibition [8]: 61%; inhibition (Saccharomyces cerevisiae): 56%; inhibition [11]: 99%; inhibition [12]: 73%; inhibition [14]: 54%
CC(C)NC(=O)c1ccc(-c2cnc(N)c(-c3ccc(C#N)cc3)c2)cc1	0.0398 µM	Active	0.0126 µM	0.126 µM	0.93 µM	0.0794 µM	0.0251 µM	0.0398 µM	1.26 µM		
CC(C)(O)c1cnc(N)c2nc(-c3ccnc(F)c3)ccc12			0.158 µM	0.2 µM		0.126 µM					
Nc1ncnc2ccc(-c3ccnc(F)c3)nc12			0.158 µM	0.2 µM		0.158 µM					IC50 ([5]; read-out: IC50): 0.15 to 0.2 µM; IC50 (Misshapen-like kinase 1 [7]; read-out: IC50): 0.15 to 0.2 µM; IC50 ([10]; read-out: IC50): 0.15 to 0.2 µM
CC(C)NC(=O)c1ccc(-c2cnc(N(C)C)c(-c3ccc(C#N)cc3)c2)cc1	63.1 µM	inactive	20 µM	25.1 µM		25.1 µM	50.1 µM	25.1 µM	> 31.6 µM	inactive	
CS(=O)(=O)c1ccc(-c2cc(-c3ccc(O)cc3)cnc2N)cc1	0.0158 µM	Active		0.0398 µM	0.47 µM	0.01 µM		0.01 µM			
Fc1cc(-c2ccc3ccncc3n2)ccn1	3.98 µM	inactive	20 µM	25.1 µM		15.8 µM	3.98 µM	5.01 µM	> 31.6 µM	inactive	
CN(C)c1ncc(-c2ccc(O)cc2)cc1-c1ccc(S(C)(=O)=O)cc1	6.31 µM	inactive	15.8 µM	20 µM		3.98 µM	7.94 µM	3.98 µM	> 31.6 µM	inactive	
